Assay results: PMC9143078, “An Albumin-Binding PSMA Ligand with Higher Tumor Accumulation for PET Imaging of Prostate Cancer” (Pharmaceuticals, 2022)

Columns and labels:
[1] = In vitro stability in saline; type: physicochemical; conditions: 37.0 °C, more than 48 h incubation
Experimental: (§1) The in vitro stability of ^64Cu-PSMA-CM was tested in 5% human serum albumin (HSA) and saline at 37.0 °C.
(§2) ^64Cu-PSMA-CM was incubated in saline or 5% human serum albumin (HSA) at 37 °C and the radiochemical purity was determined by radio-HPLC at different points in time (1 h, 4 h, 12 h, 24 h, and 48 h). For the stability in 5% HSA, 15 μL of mixture was taken out and precipitated by ethanol, filtered, and the supernatant was analyzed.

[2] = In vitro stability in 5% human serum albumin; type: in vitro ADME; conditions: 37.0 °C, more than 48 h incubation
Experimental: as §1, §2

[3] = Partition coefficient (octanol/PBS); type: physicochemical; conditions: octanol / PBS (0.1 M, pH 7.4)
Experimental: Amounts of 10 μL of ^64Cu-PSMA-CM in saline (0.37 MBq), 990 μL of phosphate-buffered saline (PBS, 0.1 M, pH 7.4), and 1mL of octanol were mixed in a tube. The mixture was vortexed for 3 min and centrifuged (3000 rpm × 5 min). Then, five samples (100 μL) from each phase were removed and the radioactivity was measured. The experiment was repeated three times. The partition coefficient value was calculated as below: P = (average of counts in octanol/average of counts in PBS), the value was expressed as log P ± SD.

PSMA (+) 22Rv1 cells = experiment: Cell uptake in 22Rv1 cells; type: cell-based, human; conditions: 120 min
Experimental: (§3) The 22Rv1 and PC-3 cell lines were plated on 24-well plates (2 × 10^5 cells/well). After incubating for 24 h, the medium was removed and washed with PBS (phosphate buffer saline, 0.01 M). Then, 500 μL medium with 74 KBq of ^64Cu-PSMA-CM was added to the well plates and co-incubated with cells at 37 °C for 10 min, 30 min, 60 min, and 120 min. The medium was then removed and the cells were washed twice with 1 mL of cold PBS. After that, cells were lysed with 1M NaOH, and then the NaOH solution was collected for analysis. For the blocking experiment, cells were co-incubated with ZJ-43 (1 µg/well), a PSMA inhibitor, for 120 min. Five samples of ^64Cu-PSMA-CM were taken out and were thought to be standard. The result was expressed as %IA/10^6 cells. For comparison, the cell uptake experiment of ^64Cu-PSMA-BCH in 22Rv1 cells was performed.

PSMA (−) PC-3 cells = experiment: Cell uptake in PC-3 cells; type: cell-based, human
Experimental: as §3

PSMA = target: T1, PSMA (Homo sapiens, UniProt Q04609); experiment: Binding affinity to PSMA on 22Rv1 cells (dissociation constant); conditions: 2 h at 37 °C, one-site total model
T1 construct: endogenous in cells; host or cells: 22Rv1 cells
T1 sequence (Q04609 whole entry): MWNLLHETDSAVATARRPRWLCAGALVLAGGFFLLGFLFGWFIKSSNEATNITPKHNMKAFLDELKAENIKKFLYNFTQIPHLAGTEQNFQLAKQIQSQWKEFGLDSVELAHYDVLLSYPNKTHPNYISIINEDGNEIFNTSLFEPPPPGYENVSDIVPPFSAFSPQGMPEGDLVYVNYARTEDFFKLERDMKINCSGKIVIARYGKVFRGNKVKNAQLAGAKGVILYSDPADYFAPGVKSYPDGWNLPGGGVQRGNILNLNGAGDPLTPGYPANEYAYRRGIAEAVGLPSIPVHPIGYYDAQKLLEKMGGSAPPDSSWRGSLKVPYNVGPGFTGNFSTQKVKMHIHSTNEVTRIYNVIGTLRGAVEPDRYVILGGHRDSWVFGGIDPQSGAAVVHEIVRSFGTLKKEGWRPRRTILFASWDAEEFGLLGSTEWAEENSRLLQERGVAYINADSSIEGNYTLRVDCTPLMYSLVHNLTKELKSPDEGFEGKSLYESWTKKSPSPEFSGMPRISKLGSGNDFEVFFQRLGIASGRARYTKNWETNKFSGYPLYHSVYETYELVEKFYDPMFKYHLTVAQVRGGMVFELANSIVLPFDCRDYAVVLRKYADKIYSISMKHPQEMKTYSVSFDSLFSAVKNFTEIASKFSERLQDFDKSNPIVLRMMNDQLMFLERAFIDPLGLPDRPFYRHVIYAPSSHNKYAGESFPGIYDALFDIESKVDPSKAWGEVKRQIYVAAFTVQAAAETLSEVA
Experimental: The dissociation constant of ^64Cu-PSMA-CM was performed on 22Rv1 cells by adding different concentrations of ^64Cu-PSMA-CM (0.185–74 kBq/mL, 400 μL/well, 4 well/group) to the 24-well plate (2 × 10^5 cells/well). After incubation for 2 h at 37 °C, the medium was removed, the cells were washed twice with cold PBS and then lysed by 0.5 mL NaOH. The radioactivity of NaOH solution was measured and the dissociation constant was calculated using the one-site total model in Graph Pad software (Graph Pad prism 5). Similarly, the dissociation constant of ^64Cu-PSMA-CM was determined with the same protocol.

[4] = Pharmacokinetics in blood; type: in vivo, mice
Experimental: The pharmacokinetics profile of ^64Cu-PSMA-CM in blood circulation was tested by injecting 3.7 MBq of ^64Cu-PSMA-CM into Balb/c male mice (n = 4).
An amount of 3.7 MBq (250 μL) of ^64Cu-PSMA-CM was intravenously injected into Babl/c male mice (n = 4). Blood was collected from the ophthalmic artery at different time points, then the radioactivity of blood was weighed and measured by a γ-counter. An injection of 2.5 μL was taken out as standard. The results were expressed as the percentage of injected dose per gram (%ID/g).
A two-phase decay Equation (1) in Graph Pad software (Graph Pad prism 5) was used to serve as the two-compartment model which models biological process of the probe by fitting the ID%/g versus to time of ^64Cu-PMA-CM to describe blood pharmacokinetics. Ct = Ae^−αt + Be^−βt(1) where A and B are relevant constants, and α and β are rate constants which were used to calculate as ln(2)/α and ln(2)/β for the half-life of distribution phase and elimination phase, respectively.

[5] = test system: mice bearing 22Rv1 tumors; experiment: Biodistribution in 22Rv1 tumor model mice; type: in vivo; conditions: for Biodistribution, Liver / Biodistribution, Spleen / Biodistribution, Blood / Biodistribution, Brain / Biodistribution, Heart / Biodistribution, Kidney / Biodistribution, LI (large intestine) / Biodistribution, Lung / Biodistribution, Muscle / Biodistribution, tumor: 22Rv1 male mice
Experimental: Twelve 22Rv1 tumor model mice were randomly divided into four groups and then ^64Cu-PSMA-CM (200 μL, 0.74 MBq/mouse) was injected via tail vein. […] Organs of interest including blood, heart, liver, spleen, lung, kidney, small intestine, large intestine, muscle, brain, and 22Rv1 tumor were collected. The organs were then weighed and measured for their radioactivity. Five samples of the 1% injection volume were taken out as a standard. The final uptake values of each organ were expressed as the percentage of injected dose per gram (%ID/g).

[6] = test system: mice bearing 22Rv1 tumors; experiment: Micro-PET imaging in mice bearing 22Rv1 xenograft tumors; type: in vivo
Experimental: An amount of 200 μL of ^64Cu-PSMA-CM (9.32 MBq) was injected into mice bearing 22Rv1 xenograft tumors via tail vein. For blocking, the mice were co-injected with 50 μg of ZJ-43. Imaging was performed on Super Nova PET/CT (PINGSENG, Shanghai, China). The mice were anaesthetized with 3% (v/v) isoflurane, then fixed on the bed at 4 h, 8 h, 12 h, 24 h, and 48 h p.i. Micro-PET scans were conducted with continuous 1% (v/v) isoflurane for 15 min. The images of ^64Cu-PSMA-CM were obtained at different time points and SUV mean values of regions of interest (ROIs) over the heart, kidney, muscle, liver, and tumor were collected. The ratio of tumor-to-non-target organs was then calculated at different time points. To better assess its […] in vivo, a comparison with ^64Cu-PSMA-BCH (5.55 MBq/mouse) of micro-PET imaging was performed in mice bearing 22Rv1 tumor models at 4 h p.i., 12 h p.i., and 24 h p.i. The mean standardized uptake value (SUVmean) in each organ was calculated according to following Formula (2). SUV = Activity VOI (MBq/mL)/Injected dose (MBq) × Body weight (g)(2)

[7] = blood activity–time profile, in Figure 5
[8] = blood activity–time profile, in Figure 5, in h
[9] = blood, mice, 3.7 MBq i.v., two-phase decay fit

With O=C([O-])CN1CCN(CC(=O)[O-])CCN(CC(=O)NC(CNC(CC(=O)NC[C@H]2CC[C@H](C(=O)N[C@H](Cc3ccc4ccccc4c3)C(=O)NCCCC[C@H](NC(=O)N[C@@H](CCC(=O)O)C(=O)O)C(=O)O)CC2)C(=O)NCCOCCOCCNC(=O)CCN2C(=O)C=CC2=O)Cc2ccccc2)CC1.[64Cu+2] (stereo partly drawn) [^64Cu-PSMA-CM] the “radiochemical purity (RCP) after incubation in saline” value [1] was “over 95%”, the “radiochemical purity (RCP) after incubation in 5% HSA” value [2] was “over 95%” and the “log P” value [3] was −2.25 ± 0.05. The “highest uptake value in PSMA (+) 22Rv1 cells” value (PSMA (+) 22Rv1 cells) was 5.45 ± 0.42 IA%/10^6 cells, the “uptake in 22Rv1 cells” value (PSMA (+) 22Rv1 cells) was 5.45 ± 0.42 %IA/10^6 cells and the “uptake in 22Rv1 cells blocked by ZJ-43” value (PSMA (+) 22Rv1 cells; co-incubated with ZJ-43 (1 µg/well)) was 3.38 ± 0.04 IA%/10^6 cells. The “uptake in PSMA (−) PC-3 cells” value (PSMA (−) PC-3 cells; 120 min) was 1.79 ± 0.20 IA%/10^6 cells, the “blocking of uptake in PC-3 cells by excess of ZJ-43” value (PSMA (−) PC-3 cells; p > 0.05) was “cannot be blocked” and the Kd (PSMA) was 4.58 nM. For the same compound, the KFast [4, 7] was 4.287, the KSlow [4, 7] was 0.1765 and the “Half Life (Fast)” value [4, 8] was 0.1617. For the same compound, the “Half Life (Slow)” value [4, 8] was 3.927, the “half-life of the distribution phase” value [4, 9] was 9.6 min and the “half-life of the elimination phase” value [4, 9] was 3.93 h. The “highest uptake in 22Rv1 tumor” value ([5]; 22Rv1-beared male mice, 24 h p.i.) was 14.29 ± 1.44 %ID/g, the uptake in kidneys ([5]; 22Rv1-beared male mice, within 1 h) was 95.84 ± 3.33 %ID/g and the “Biodistribution, Liver” value [5] was 8.50±1.06 ID%/g. The “Biodistribution, Spleen” value [5] was 2.65±0.55 ID%/g, the “Biodistribution, Blood” value ([5]; 1 h) was 16.95 ± 3.05 ID%/g and the “Biodistribution, Brain” value ([5]; 1 h) was 0.69±0.07 ID%/g. The “Biodistribution, Heart” value ([5]; 1 h) was 4.49±0.47 ID%/g, the “Biodistribution, Kidney” value ([5]; 1 h) was 95.84±3.33 ID%/g and the “Biodistribution, LI (large intestine)” value ([5]; 1 h) was 3.75±0.11 ID%/g. For the same compound, the “Biodistribution, Liver” value ([5]; 1 h) was 5.34 ± 1.13 ID%/g, the “Biodistribution, Lung” value ([5]; 1 h) was 9.91±0.43 ID%/g and the “Biodistribution, Muscle” value ([5]; 1 h) was 1.15±0.09 ID%/g. For the same compound, the “Biodistribution, Spleen” value ([5]; 1 h) was 8.48±3.35 ID%/g, the “Biodistribution, tumor” value ([5]; 1 h) was 8.09±1.66 ID%/g and the “Biodistribution, Blood” value ([5]; 6 h) was 12.33±2.83 ID%/g. For the same compound, the “Biodistribution, Brain” value ([5]; 6 h) was 0.47±0.05 ID%/g, the “Biodistribution, Heart” value ([5]; 6 h) was 4.16±0.62 ID%/g and the “Biodistribution, Kidney” value ([5]; 6 h) was 26.78±0.69 ID%/g. For the same compound, the “Biodistribution, LI (large intestine)” value ([5]; 6 h) was 2.85±0.06 ID%/g, the “Biodistribution, Liver” value ([5]; 6 h) was 5.24±0.59 ID%/g and the “Biodistribution, Lung” value ([5]; 6 h) was 8.47±1.45 ID%/g. For the same compound, the “Biodistribution, Muscle” value ([5]; 6 h) was 1.22±0.25 ID%/g, the “Biodistribution, Spleen” value ([5]; 6 h) was 4.63±1.13 ID%/g and the “Biodistribution, tumor” value ([5]; 6 h) was 8.51±1.99 ID%/g. For the same compound, the “Biodistribution, Blood” value ([5]; 12 h) was 5.41±0.94 ID%/g, the “Biodistribution, Brain” value ([5]; 12 h) was 0.44±0.06 ID%/g and the “Biodistribution, Heart” value ([5]; 12 h) was 1.96±0.35 ID%/g. The “Biodistribution, Kidney” value ([5]; 12 h) was 14.19±1.40 ID%/g, the “Biodistribution, LI (large intestine)” value ([5]; 12 h) was 4.32±0.69 ID%/g and the “Biodistribution, Lung” value ([5]; 12 h) was 6.28±0.72 ID%/g. The “Biodistribution, Muscle” value ([5]; 12 h) was 1.24±0.77 ID%/g, the “Biodistribution, tumor” value ([5]; 12 h) was 14.29±1.44 ID%/g and the “Biodistribution, Blood” value ([5]; 24 h) was 2.83±0.41 ID%/g. The “Biodistribution, Heart” value ([5]; 24 h) was 0.95±0.21 ID%/g, the “Biodistribution, Kidney” value ([5]; 24 h) was 8.92±0.41 ID%/g and the “Biodistribution, LI (large intestine)” value ([5]; 24 h) was 2.81±0.35 ID%/g. For the same compound, the “Biodistribution, Liver” value ([5]; 24 h) was 6.14±0.23 ID%/g, the “Biodistribution, Lung” value ([5]; 24 h) was 5.60±0.23 ID%/g and the “Biodistribution, Spleen” value ([5]; 24 h) was 2.31±0.26 ID%/g. The “Biodistribution, tumor” value ([5]; 24 h) was 10.57±1.23 ID%/g, the “SUV mean value in 22Rv1 tumor (highest accumulation)” value ([6]; 24 h p.i.) was 1.88 ± 0.04 and the “uptake in tumors and kidneys when co-injected with excess ZJ-43” value ([6]; ZJ-43 50 μg, p < 0.001) was “significantly decreased”.
